Structures are written as SMILES. Where two headings read alike, the source gives them in different places.

Data set [1] in a line: Kinetic solubility of spray dried dispersion with Ezetimibe in FaSSIF. The class given is physicochemical. Here is the method: Hg reduced pressure for 24 hours.
For data set [2] the following is noted: cited from earlier work.
The conditions of data set [3]: 120 min.
Description: Dissolution was performed using a pDISS Profiler™ (available from Pion Inc., MA, USA). Each spray-dried powder was weighed so that the volume adjusted equivalent of the typical daily dose of the drug was added to each vial and compensation was made for the drug load of the samples. For example, the target API was 9.5 mg for Felpdipine in 20 ml of FaSSIF. The spray dried sample containing 9.5 mg API of Felpdipine was weighed. For Ezetimibe, the spray dried sample containing 10 mg API was weighed. The weighed spray dried samples were added to 20 ml of FaSSIF in vials and then heated to 37° C. The vials were maintained at a constant stirring speed of 300 RPM. Dissolution measurements were taken by in situ fiber optic probes at various time points and these measurements were analyzed at the appropriate wavelength for dissolved API concentration. Based on the in situ measurement data, various solubility parameters were calculated.

For the compound `O=C1[C@H](CC[C@H](O)c2ccc(F)cc2)[C@@H](c2ccc(O)cc2)N1c1ccc(F)cc1` [Ezetimibe API, Ezetimibe], the C120 in data set [1] (Ezetimibe SDD, 60% drug load, API concentration at 120 minutes) was 14 µg/mL. The AUC120 in data set [1] (Ezetimibe SDD, 60% drug load, FaSSIF 37° C., API concentration over first 120 minutes) was 1,626 μg * min/mL. Moreover, in data set [1] (Ezetimibe, ratio of AUC120 of polymer/drug dispersion versus API alone), the “AUC(Rel)” value is 1.0. On to `CCOC(=O)N1c2ccc(C(F)(F)F)cc2[C@@H](N(Cc2cc(C(F)(F)F)cc(C(F)(F)F)c2)C(=O)OC)C[C@H]1CC` [torcetrapib], for which, in data set [2], the aqueous solubility result is given as “less than 0.04 μg/ml”.

For `CCOC(=O)C1=C(C)NC(C)=C(C(=O)OC)C1c1cccc(Cl)c1Cl` (centres unmarked) [Felodipine API, Felodipine], the C120 in data set [3] came to 28 µg/mL.

The record behind these values is US10106625B2, “Pharmaceutical compositions with enhanced performance and improved processability” (HERCULES INCORPORATED, priority 2013, dated 2018).
